# Measured values as given in ChEMBL document CHEMBL1255215, “Synthesis and selective anticancer activity of organochalcogen based redox catalysts” (J Med Chem, 2010).
# The source made the active and inactive calls. No cut-off for these calls is given here.
# Columns and labels:
# B-CLL [1] = assay: Cytotoxicity against human B-CLL cells assessed as reduction in cell viability; format: functional, cell-based
# B-CLL [2] = assay: Cytotoxicity against human B-CLL cells assessed as reduction in cell viability at 10 uM; format: functional, cell-based
# PBMC [3] = assay: Cytotoxicity against human PBMC; format: cell-based
# K562 = assay: Cytotoxicity against human K562 cells assessed as cell viability at 10 uM; format: functional; details: read-out: Activity
# [4] = Cytotoxicity against human B-CLL cells assessed as reduction in cell viability at 500 nM relative to untreated control; format: functional
# [5] = Cytotoxicity against human B-CLL cells assessed as reduction in cell viability at 1 uM relative to untreated control; format: functional
# B-CLL [6] = assay: Induction of intracellular ROS level in human B-CLL cells by flow cytometry; format: functional, cell-based
# PBMC [7] = assay: Induction of intracellular ROS level in human PBMC cells by flow cytometry; format: functional, cell-based
# [8] = Cytotoxicity against mouse NIH/3T3 cells at 1.25 uM; format: cell-based; details: nih3t3, 1.25 µM
# HUVEC = assay: Cytotoxicity against HUVEC at 1.25 uM; format: cell-based; details: human
# A549 [9] = assay: Cytotoxicity against human A549 cells at 0.3 uM; format: functional
# MCF7 [10] = assay: Cytotoxicity against human MCF7 cells at 0.3 uM; format: functional
# B-CLL [11] = assay: Induction of apoptosis in human B-CLL cells assessed as caspase3 activation by […]; format: functional, cell-based
# PBMC [12] = assay: Induction of apoptosis in human PBMC cells assessed as caspase3 activation by […]; format: functional, cell-based
# HT-29 = assay: Cytotoxicity against human HT-29 cells at 0.3 to 0.625 uM; format: functional
# MCF7 [13] = assay: Cytotoxicity against human MCF7 cells at 0.3 to 0.625 uM; format: functional
# A549 [14] = assay: Cytotoxicity against human A549 cells at 0.3 to 0.625 uM; format: functional
structure (smiles),measurement,setting,value
O=C1C(Sc2ccccc2)=C(Sc2ccccc2)C(=O)c2ccccc21,Activity,B-CLL [1],Active
same,Activity,B-CLL [2],Active
O=C1C([Se]c2ccccc2)=C([Se]c2ccccc2)C(=O)c2ccccc21,Activity,B-CLL [1],Active
same,Activity,PBMC [3],Non-toxic
CCOC(C[Se]C1=C([Se]CC(OCC)OCC)C(=O)c2ccccc2C1=O)OCC,viability at 10 µM,K562,8.6%
CC1=C([Te]c2ccccc2)C(=O)c2ccccc2C1=O,Activity,B-CLL [1],Active
same,viability at 10 µM,K562,4.1%
same,Activity,PBMC [3],Non-toxic
same,Ratio,[4],3.17
same,Ratio,[5],5.03
same,Activity,B-CLL [6],Active
same,Activity,PBMC [7],inactive
same,Activity,[8],< 50%
same,Activity,HUVEC,< 50%
same,Activity,A549 [9],<50%
same,Activity,MCF7 [10],<50%
O=C1C([Te]c2ccccc2)=C([Te]c2ccccc2)C(=O)c2ccccc21,Activity,B-CLL [1],Active
same,viability at 10 µM,K562,15%
same,Activity,PBMC [3],Non-toxic
same,Activity,B-CLL [11],Active
same,Activity,PBMC [12],inactive
same,Activity,B-CLL [6],Active
same,Activity,PBMC [7],inactive
same,Activity,HT-29,<50%
same,Activity,MCF7 [13],<50%
same,Activity,A549 [14],<50%
same,Activity,[8],< 50%
same,Activity,HUVEC,< 50%
O=C1C([Se]c2ccccc2)=C([Se]c2ccccc2)C(=O)c2c(O)ccc(O)c21,Activity,B-CLL [1],Active
same,Activity,PBMC [3],Toxic
same,Activity,B-CLL [2],Active
CC1=C([Te]c2ccc(O)cc2)C(=O)c2ccccc2C1=O,Activity,B-CLL [1],inactive
same,viability at 10 µM,K562,30%
